# Test results taken from ChEMBL document CHEMBL3826905, “1'-Homonucleosides and their structural analogues: A review” (Eur J Med Chem, 2016).
# Columns and labels:
# [1] = Inhibition of Escherichia coli methionyl-tRNA synthetase assessed as decrease in [35S]methionyl-tRNA generation
# [2] = target: Isoleucine--tRNA ligase (Escherichia coli K-12, UniProt P00956); experiment: Inhibition of Escherichia coli isoleucyl-tRNA synthetase assessed as decrease in [3H]isoleucyl-tRNA generation
# [3] = system: MOLT-4; experiment: Cytostatic activity against human Molt4/C8 cells; type: functional, cell-based; conditions: Homo sapiens, MOLT-4
# [4] = system: CCRF-CEM; experiment: Cytostatic activity against human CEM/0 cells; type: functional, cell-based
# [5] = Cytostatic activity against mouse L1210/0 cells; type: functional, cell-based; conditions: Mus musculus, L1210/0
# [6] = system: Influenza A virus; experiment: Antiviral activity against Influenza A virus; type: functional, organism-based
# [7] = system: Human immunodeficiency virus 1; experiment: Antiviral activity against HIV1; type: functional, organism-based
# [8] = system: Human immunodeficiency virus 2; experiment: Antiviral activity against HIV2; type: functional, organism-based
# [9] = Antiproliferative activity against mouse L1210/0 cells; type: functional, cell-based
# [10] = Antiproliferative activity against human Molt4/C8 cells; type: functional, cell-based; conditions: MOLT-4
# [11] = Antiproliferative activity against mouse L1210/0 cells after 48 hrs by trypan blue staining method; type: functional, cell-based; conditions: L1210/0, 48 h
# [12] = system: Hepatitis C virus; experiment: Antiviral activity against Hepatitis C virus; type: functional, organism-based, Hepacivirus hominis
# [13] = target: T1, Inosine-adenosine-guanosine-nucleoside hydrolase (Trypanosoma brucei brucei, UniProt O15727); experiment: Inhibition of Trypanosoma brucei brucei inosine-adenosine-guanosine nucleoside hydrolase expressed in Escherichia coli
# T1 sequence (O15727 whole entry): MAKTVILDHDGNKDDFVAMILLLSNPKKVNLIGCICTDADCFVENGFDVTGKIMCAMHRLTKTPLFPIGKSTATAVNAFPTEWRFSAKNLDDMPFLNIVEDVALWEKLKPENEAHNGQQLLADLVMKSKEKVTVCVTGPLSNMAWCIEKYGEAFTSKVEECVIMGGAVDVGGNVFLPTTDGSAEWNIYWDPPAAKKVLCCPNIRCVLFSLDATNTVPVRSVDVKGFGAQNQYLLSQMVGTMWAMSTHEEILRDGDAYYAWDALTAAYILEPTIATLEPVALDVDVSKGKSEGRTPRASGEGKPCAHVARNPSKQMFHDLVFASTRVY
# [14] = target: T2, Inosine-uridine preferring nucleoside hydrolase (Crithidia fasciculata, UniProt Q27546); experiment: Inhibition of Crithidia fasciculata inosine-uridine nucleoside hydrolase expressed in Escherichia coli using p-nitrophenyl beta-D-ribofuranoside as substrate by xanthine oxidase coupled enzyme assay
# T2 sequence (Q27546 whole entry): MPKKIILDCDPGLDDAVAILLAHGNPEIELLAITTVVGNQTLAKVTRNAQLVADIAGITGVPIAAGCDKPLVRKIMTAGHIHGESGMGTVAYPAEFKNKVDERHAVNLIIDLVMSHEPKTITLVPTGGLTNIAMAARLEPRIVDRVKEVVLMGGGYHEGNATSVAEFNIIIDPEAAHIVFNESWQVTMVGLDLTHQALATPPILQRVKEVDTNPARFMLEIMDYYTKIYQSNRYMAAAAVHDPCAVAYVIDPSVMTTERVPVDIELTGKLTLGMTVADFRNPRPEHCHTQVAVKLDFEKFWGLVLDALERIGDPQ
# [15] = system: Cytomegalovirus; experiment: Antiviral activity against Cytomegalovirus Davis infected in HEL cells assessed as inhibition of virus plaque formation; type: functional, organism-based; conditions: Human betaherpesvirus 5, Davis
# [16] = system: Cytomegalovirus; experiment: Antiviral activity against Cytomegalovirus AD169 infected in HEL cells assessed as inhibition of viral plaque formation; type: functional, organism-based; conditions: Human betaherpesvirus 5, AD169, HEL
# [17] = system: Cytomegalovirus; experiment: Antiviral activity against Cytomegalovirus Davis 07/1 infected in HEL cells; type: functional, organism-based; conditions: Human betaherpesvirus 5, Davis 07/1, HEL
# [18] = system: Human alphaherpesvirus 3; experiment: Antiviral activity against TK-deficient Varicella-zoster virus infected in HEL cells; type: functional, organism-based; conditions: Human alphaherpesvirus 3, HEL
# [19] = system: Cytomegalovirus; experiment: Antiviral activity against Cytomegalovirus AD169 infected in HEL cells; type: functional, organism-based; conditions: Human betaherpesvirus 5, AD169, HEL
# [20] = Antiproliferative activity against human CEM/0 cells; type: functional, cell-based; conditions: CCRF-CEM
# [21] = system: Human immunodeficiency virus 1; experiment: Antiviral activity against HIV1 infected in human CEM cells assessed as protection against virus-induced cytopathicity by giant cell formation assay; type: functional, organism-based; conditions: Human immunodeficiency virus 1, CCRF-CEM
# [22] = system: Human immunodeficiency virus 2; experiment: Antiviral activity against HIV2 infected in human CEM cells assessed as protection against virus-induced cytopathicity by giant cell formation assay; type: functional, organism-based; conditions: Human immunodeficiency virus 2, CCRF-CEM
# Isoleucine--tRNA ligase, sequence (P00956 whole entry): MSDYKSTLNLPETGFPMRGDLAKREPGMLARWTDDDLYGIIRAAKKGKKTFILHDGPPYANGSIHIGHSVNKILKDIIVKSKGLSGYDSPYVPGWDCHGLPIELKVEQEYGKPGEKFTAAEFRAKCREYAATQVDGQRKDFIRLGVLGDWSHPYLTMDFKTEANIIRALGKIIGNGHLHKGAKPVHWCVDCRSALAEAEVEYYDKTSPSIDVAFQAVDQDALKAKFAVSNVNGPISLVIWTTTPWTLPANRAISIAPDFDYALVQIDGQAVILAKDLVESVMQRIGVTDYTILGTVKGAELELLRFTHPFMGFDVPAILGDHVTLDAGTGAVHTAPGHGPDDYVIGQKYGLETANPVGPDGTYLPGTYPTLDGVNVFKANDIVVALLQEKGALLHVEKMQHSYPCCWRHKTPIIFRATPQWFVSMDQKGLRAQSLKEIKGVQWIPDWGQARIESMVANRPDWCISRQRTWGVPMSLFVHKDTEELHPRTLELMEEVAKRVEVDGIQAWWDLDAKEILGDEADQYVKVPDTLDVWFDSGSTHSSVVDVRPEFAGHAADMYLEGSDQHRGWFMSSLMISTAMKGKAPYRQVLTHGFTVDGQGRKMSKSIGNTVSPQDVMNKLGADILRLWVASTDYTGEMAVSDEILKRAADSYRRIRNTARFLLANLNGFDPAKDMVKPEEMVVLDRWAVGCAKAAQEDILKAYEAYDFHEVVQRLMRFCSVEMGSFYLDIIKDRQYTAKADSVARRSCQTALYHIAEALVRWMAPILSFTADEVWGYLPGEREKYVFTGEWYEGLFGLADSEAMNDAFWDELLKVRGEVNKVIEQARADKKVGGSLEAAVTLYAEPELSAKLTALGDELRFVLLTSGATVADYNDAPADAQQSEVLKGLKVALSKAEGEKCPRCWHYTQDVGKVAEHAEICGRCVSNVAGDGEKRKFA
smiles,measurement,setting,value
CSCC[C@H](N)C(=O)OC[C@H]1O[C@@H](CCn2cnc3c(N)ncnc32)[C@H](O)[C@@H]1O,IC50,[1],8.3 µM
CSCC[C@H](N)C(=O)N(O)C[C@H]1O[C@@H](Cn2cnc3c(N)ncnc32)[C@H](O)[C@@H]1O,IC50,[1],3.6 µM
CC[C@H](C)[C@H](N)C(=O)OC[C@H]1O[C@@H](Cn2cnc3c(N)ncnc32)[C@H](O)[C@@H]1O,IC50,[2],> 128 µM
CSCC[C@H](N)C(=O)OC[C@H]1O[C@@H](n2cnc3c(N)ncnc32)[C@H](O)[C@@H]1O,IC50,[1],5 µM
CC[C@H](C)[C@H](N)C(=O)N(O)C[C@H]1O[C@@H](Cn2cnc3c(N)ncnc32)[C@H](O)[C@@H]1O,IC50,[2],> 128 µM
CSCC[C@H](N)C(=O)OC[C@H]1O[C@@H](Cn2cnc3c(NCc4ccccc4)ncnc32)[C@H](O)[C@@H]1O,IC50,[1],3.6 µM
CSCC[C@H](N)C(=O)OC[C@H]1O[C@@H](Cn2cnc3c(N)ncnc32)[C@H](O)[C@@H]1O,IC50,[1],3.6 µM
CCOc1ncnc2c1ncn2C[C@@H]1C[C@H](CO)c2ccccc21,IC50,[3],24 µg/mL
same,IC50,[4],24 µg/mL
same,IC50,[5],24 µg/mL
CCCNc1ncnc2c1ncn2C[C@@H]1C[C@H](CO)c2ccccc21,IC50,[3],24 µg/mL
same,IC50,[4],24 µg/mL
same,IC50,[5],24 µg/mL
Cc1ccc(-c2ncnc3c2ncn3C[C@@H]2C[C@H](CO)c3ccccc32)cc1,IC50,[3],1.4 µg/mL
same,IC50,[4],1.4 µg/mL
same,IC50,[5],1.4 µg/mL
Nc1ncnc2c1ncn2C[C@@H]1C[C@H](CO)c2ccccc21,IC50,[3],24 µg/mL
same,IC50,[4],24 µg/mL
same,IC50,[5],24 µg/mL
Nc1ncnc2c1ncn2C[C@H]1C[C@H](O)[C@@H](CO)O1,IC50,[6],49.2 µg/mL
CC1(C)[C@@H](Cn2cnc3c(N)nc(N)nc32)CC[C@@]1(C)CO,EC50,[7],4 µg/mL
same,EC50,[8],4 µg/mL
COc1ncnc2c1ncn2C[C@@H]1C[C@H](CO)c2ccccc21,IC50,[3],24 µg/mL
same,IC50,[4],24 µg/mL
same,IC50,[5],24 µg/mL
OC[C@H]1C[C@@H](Cn2cnc3c(O)ncnc32)c2ccccc21,IC50,[3],24 µg/mL
same,IC50,[4],24 µg/mL
same,IC50,[5],24 µg/mL
CC1(C)[C@@H](Cn2cnc3c(Cl)nc(N)nc32)CC[C@@]1(C)CO,IC50,[9],16.2 µg/mL
same,IC50,[10],13.2 µg/mL
same,EC50,[7],4 µg/mL
same,EC50,[8],4 µg/mL
OC[C@@H]1C=C[C@H](Cn2cnc3c(O)ncnc32)C1,IC50,[11],> 200 µM
Cc1cn(C[C@H]2C[C@H](OCc3ccccc3)[C@@H](COCc3ccccc3)O2)c(=O)[nH]c1=O,IC50,[6],70.3 µg/mL
Nc1ncnc2c1ncn2C[C@H]1C=C[C@@H](CO)C1,IC50,[11],> 200 µM
Nc1nc2c(ncn2C[C@H]2C=C[C@@H](CO)C2)c(=O)[nH]1,IC50,[11],> 200 µM
O[C@H]1C[C@@]2(Cn3cnc4c(Cl)ncnc43)O[C@@H]1c1ccccc12,EC50,[12],45.1 µM
Nc1ncnc2c1N=CC2[C@@H]1N[C@H](CO)[C@@H](O)[C@H]1O (some centres undefined),Ki,[13],0.003 µM
same,Ki,[14],0.007 µM
O=c1[nH]cnc2c1ncn2C[C@H]1C[C@H](O)[C@@H](CO)O1,IC50,[6],25.2 µg/mL
OCC12C=CC(Cn3cnc4c(Cl)ncnc43)(O1)c1ccccc12 (centres undefined),EC50,[12],45.1 µM
Nc1nc(Cl)c2ncn(C[C@H]3CCC[C@H]3CO)c2n1,IC50,[15],> 5 µg/mL
same,IC50,[16],> 5 µg/mL
CC1(C)[C@@H](Cn2cnc3c(NC4CC4)nc(N)nc32)CC[C@@]1(C)CO,IC50,[11],13.9 µg/mL
OC[C@@]12O[C@@](Cn3cnc4c(Cl)ncnc43)(c3ccccc31)[C@H](O)[C@@H]2O,EC50,[12],45.1 µM
Nc1ncnc2c1ncn2C[C@H]1C[C@H](OCc2ccccc2)[C@@H](COCc2ccccc2)O1,IC50,[6],39.9 µg/mL
Cn1ncc2c1[C@@H](CO[Si](c1ccccc1)(c1ccccc1)C(C)(C)C)C[C@H]2Cn1cnc2c(O)ncnc21,IC50,[3],3.2 µg/mL
same,IC50,[4],3.2 µg/mL
same,IC50,[5],3.2 µg/mL
CC(C)(C)[Si](OC[C@H]1C[C@@H](Cn2cnc3c(N)ncnc32)c2cn(Cc3ccccc3)nc21)(c1ccccc1)c1ccccc1,EC50,[17],500 nM
same,EC50,[18],1500 nM
same,EC50,[19],500 nM
O=c1[nH]cnc2c1ncn2C[C@H]1C[C@H](OCc2ccccc2)[C@@H](COCc2ccccc2)O1,IC50,[6],24.3 µg/mL
OC[C@H]1N[C@@H](Cn2cnc3c(O)ncnc32)[C@H](O)[C@@H]1O,Ki,[13],3.6 µM
same,Ki,[14],5.4 µM
OCC12CCC(Cn3cnc4c(Cl)ncnc43)(O1)c1ccccc12 (centres undefined),EC50,[12],45.1 µM
CC(C)Nc1ncnc2c1ncn2C[C@@H]1C[C@H](CO)c2ccccc21,IC50,[3],24 µg/mL
same,IC50,[4],24 µg/mL
same,IC50,[5],24 µg/mL
CC(C)(C)[Si](OC[C@H]1C[C@@H](Cn2cnc3c(Cl)nc(N)nc32)c2cn(Cc3ccccc3)nc21)(c1ccccc1)c1ccccc1,EC50,[17],390 nM
same,EC50,[18],2100 nM
same,EC50,[19],440 nM
Cn1ncc2c1[C@H](Cn1cnc3c(Cl)ncnc31)C[C@@H]2CO[Si](c1ccccc1)(c1ccccc1)C(C)(C)C,IC50,[3],3.2 µg/mL
same,IC50,[4],3.2 µg/mL
same,IC50,[5],3.2 µg/mL
Cc1cn(C[C@H]2C[C@H](O)[C@@H](CO)O2)c(=O)[nH]c1=O,IC50,[6],70.4 µg/mL
O=c1ccn(C[C@H]2C[C@H](OCc3ccccc3)[C@@H](COCc3ccccc3)O2)c(=O)[nH]1,IC50,[6],108 µg/mL
Nc1nc(O)c2ncn(C[C@@H]3N[C@H](CO)[C@@H](O)[C@H]3O)c2n1,Ki,[13],3.6 µM
same,Ki,[14],5.4 µM
Nc1ccn(C[C@H]2C[C@H](O)[C@@H](CO)O2)c(=O)n1,IC50,[6],67.3 µg/mL
Nc1nc(Cl)c2ncn(C[C@@H]3C[C@H](CO)c4c(-c5ccccc5)nnc(-c5ccccc5)c43)c2n1,IC50,[11],> 200 µM
Nc1ncnc2c1ncn2C[C@H]1CCC[C@H]1CO,IC50,[9],100 µg/mL
same,IC50,[20],100 µg/mL
same,IC50,[10],100 µg/mL
OC[C@H]1C[C@@H](Cn2cnc3c(Cl)ncnc32)c2ccccc21,IC50,[3],24 µg/mL
same,IC50,[4],24 µg/mL
same,IC50,[5],24 µg/mL
Nc1nc(NC2CCCC2)c2ncn(C[C@@H]3C[C@H](CO)c4c(-c5ccccc5)nnc(-c5ccccc5)c43)c2n1,IC50,[11],65.7 µM
Clc1ncnc2c1ncn2CC12C=CC(O1)c1ccccc12 (centres undefined),EC50,[12],6.31 µM
Cn1ncc2c1[C@H](Cn1cnc3c(Cl)nc(N)nc31)C[C@@H]2CO,IC50,[3],3.2 µg/mL
same,IC50,[4],3.2 µg/mL
same,IC50,[5],3.2 µg/mL
O=c1[nH]c(=O)n([C@H]2CC[C@@H](CO)C2)cc1I,IC50,[9],73 µg/mL
same,IC50,[10],73 µg/mL
O=c1[nH]c(=O)n([C@H]2CCC[C@H]2CO)cc1I,EC50,[21],12.5 µg/mL
same,EC50,[22],12.5 µg/mL
Nc1ccn(C[C@H]2C[C@H](OCc3ccccc3)[C@@H](COCc3ccccc3)O2)c(=O)n1,IC50,[6],57.4 µg/mL
OCC12CCC(O1)c1cc3ccccc3cc12 (centres undefined),EC50,[12],6.31 µM
O=C(OCC12C=CC(O1)c1cc3ccccc3cc12)c1ccccc1 (centres undefined),EC50,[12],6.31 µM
Cn1ncc2c1[C@H](Cn1ccc(=O)[nH]c1=O)C[C@@H]2CO[Si](c1ccccc1)(c1ccccc1)C(C)(C)C,IC50,[3],3.2 µg/mL
same,IC50,[4],3.2 µg/mL
same,IC50,[5],3.2 µg/mL
Cc1cn(C[C@@H]2C[C@H](CO)c3ccccc32)c(=O)[nH]c1=O,IC50,[3],81 µg/mL
same,IC50,[4],81 µg/mL
same,IC50,[5],81 µg/mL
OC[C@H]1C[C@@H](Cn2cnc3c(-c4ccc(Cl)cc4)ncnc32)c2ccccc21,IC50,[3],0.63 µg/mL
same,IC50,[4],0.63 µg/mL
same,IC50,[5],0.63 µg/mL
OC[C@H]1C[C@@H](Cn2cnc3c(NC4CC4)ncnc32)c2ccccc21,IC50,[3],24 µg/mL
same,IC50,[4],24 µg/mL
same,IC50,[5],24 µg/mL
OCC1CCCC1n1cnc2c(Cl)ncnc21 (centres undefined),IC50,[9],19 µg/mL
same,IC50,[20],19 µg/mL
same,IC50,[10],19 µg/mL
O=c1[nH]c(=O)n(C2CCCC2CO)cc1I (centres undefined),IC50,[9],65.8 µg/mL
same,IC50,[20],65.8 µg/mL
same,IC50,[10],65.8 µg/mL
Nc1nc2c(ncn2COC(CO)CO)c(=O)[nH]1 [GANCICLOVIR],EC50,[17],400 nM
same,EC50,[19],250 nM
